Key:
mSPP1 = target: T1, mSPP1 (Mus musculus, UniProt Q9JI99); assay: Substrate degradation by membrane fractions from HEK293 cells transfected with mSPP1; type: biochemical, murine
T1 construct: expressed in transfected cells; host or cells: HEK293 (human embryonic kidney), transient CaCl2 transfection with mSPP1-pcDNA3.1; membrane pellet (40,000 x g)
T1 sequence (Q9JI99 1-430): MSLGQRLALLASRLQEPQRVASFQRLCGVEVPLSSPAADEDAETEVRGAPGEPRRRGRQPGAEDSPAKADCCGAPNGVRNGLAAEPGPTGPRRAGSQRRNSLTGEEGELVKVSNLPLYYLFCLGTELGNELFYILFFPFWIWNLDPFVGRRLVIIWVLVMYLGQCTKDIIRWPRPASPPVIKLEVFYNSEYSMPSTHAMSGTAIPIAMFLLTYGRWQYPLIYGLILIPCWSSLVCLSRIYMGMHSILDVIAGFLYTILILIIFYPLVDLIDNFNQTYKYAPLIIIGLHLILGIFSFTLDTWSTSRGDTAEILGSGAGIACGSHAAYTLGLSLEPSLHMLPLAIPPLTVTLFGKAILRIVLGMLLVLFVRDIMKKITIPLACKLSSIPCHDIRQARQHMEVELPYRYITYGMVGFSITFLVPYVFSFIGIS

[1] = tested on: Yeast (lbp1Δ::LEU2 sur2-2); assay: Australifungin sensitivity, microtiter broth dilution assay in transformed yeast; type: cell-based
Procedure: Yeast cells defective in LBP1 shunt sphingolipid metabolites into phosphatidylethanolamine and phosphatidylcholine synthesis and become extremely sensitive to ceramide synthase inhibition by the antifungal agent, australifungin. To test whether the mouse SPP phosphatases can substitute for the function of LBP1, mSPP1pRS414-ADH, mSPP1bpRS414-ADH, or control vector (pRS414-ADH) were transformed into lbp1Δ::LEU2sur2-2 and sensitivity to australifungin was determined using a microtiter broth dilution assay. Transformants were incubated overnight in Synthetic Complete-Tryptophan (SC-TRP) Yeast Nitrogen Base medium (DIFCO) containing 2% glucose and 0.078% tryptophan-free supplement mixture (BIO101) at […]. Cells were inoculated at an OD600=0.001 (˜1×10^4 yeast cells/ml), and serial 2-fold dilutions of australifungin were made from 5 μg/ml. Growth after 48 h at 30° C. was measured by absorbance readings with a Rainbow spectrometer (TECAN).

[2] = tested on: [3H]dihydrosphingosine-1-phosphate; assay: Dihydrosphingosine phosphate phosphohydrolase activity in membranes of transfected HEK293 cells; type: biochemical, Human; conditions: compared to vector transfected cells or mSPP1b transfected cells
Procedure: (§1) Microsomal membranes were collected by ultracentrifugation (100,000×g, 1 hour) and suspended in disruption buffer containing 20% glycerol. Dihydrosphingosine-1-phosphate phosphohydrolase activity was measured in 200 μl containing 50 mM KPO4 pH 7.2, 0.02% tergitol (NP-40), 2 μM [^3H]dihydrosphingosine-1-phosphate (40,000 cpm), 2 mM semicarbazide, and 0.3 to 5 μg of membrane protein. Following a 45 min incubation at 37° C., the assay was terminated with 200 μl 7 M NH4OH. One ml of chloroform:methanol (3:2) was added and 50 μl of the chloroform layer was counted by liquid scintillation.
Transfection-quality DNA was prepared for plasmids mSPP1-pcDNA3.1 and mSPP1b-pcDNA3.1 using endotoxin-free QIAGEN Maxi protocol (QIAGEN, Chatsworth, Calif.). Human embryonic kidney (HEK293) cells were maintained in high glucose Dulbecco's modified Eagle's medium (DMEM) containing 100 U/ml penicillin, 100 μg/ml streptomycin and 2 mM L-glutamine supplemented with 10% fetal bovine serum. Cells (1×10^6) were transfected with 20 μg of plasmid DNA by the CaCl2 procedure using a kit from SPECIALTY MEDIA (Lavallette, N.J.). Cells were harvested 48 hours after transfection with enzyme-free dissociation solution (SPECIALTY MEDIA, Lavallette, N.J.). […] Dihydrosphingosine phosphate phosphohydrolase activity was measured as described in Example 4.

NIH 3T3 fibroblasts = assay: Enforced expression of mSPP1 in NIH 3T3 fibroblasts: survival and apoptosis; type: cell-based; conditions: enforced expression in NIH 3T3 fibroblasts
[3] = tested on: [3H]dihydrosphingosine-1-phosphate; assay: Dihydrosphingosine-1-phosphate phosphohydrolase activity in microsomal membranes of transformed yeast; type: biochemical; conditions: yeast lbp1Δ::LEU2 sur2-2 expressing the protein, compared to the vector control
Description: To test whether mSPP1 and mSPP1b encoded SPP phosphatases with properties similar to yeast Lbp1p, the mouse genes were subcloned into pRS414-ADH for expression of the genes in LBP1 mutants under the control of a strong, constitutive yeast promoter (ADH). The resulting plasmids were mSPP1pRS414-ADH and mSPP1bpRS414-ADH. Yeast (lbp1Δ::LEU2 sur2-2) were transformed with mSPP1pRS414-ADH, mSPP1bpRS414-ADH, or control vector (pRS414-ADH) using the lithium acetate/polyethylene glycol procedure and plated onto Synthetic Complete-Tryptophan (SC-TRP) Yeast Nitrogen Base medium (DIFCO) containing 1.5% agar, 2% glucose and 0.078% tryptophan-free supplement mixture (BIO101). Transformants were inoculated into SC-TRP media and incubated overnight at 30° C. to an OD600 of 1.0. […]
as §1, with “Following a 45 min incubation at 37° C., the assay was terminated with 200 μl 7 M NH4OH.” left out

lysophosphatidic acid
degradation of substrate by mSPP1 membrane fractions (mSPP1): not

phosphatidic acid
degradation of substrate by mSPP1 membrane fractions (mSPP1): not

CCCCCCCCCCCCC/C=C/[C@@H](O)[C@@H](N)COP(=O)(O)O [SPP, Sphingosine-1-phosphate]
degradation of substrate by mSPP1 membrane fractions (mSPP1): markedly degraded

CCCCCC[C@@H](C)C1=C(O)C(=O)[C@@H]2[C@H](O)[C@H](C)C[C@H](O)[C@H]2[C@]1(C)C(=O)/C=C\O [australifungin]
increase in the MIC90 of australifungin ([1]; lbp1Δsur2-2 mutant expressing mSPP1, compared to vector transformed mutants, growth after 48 h at 30° C.): 64 fold
australifungin sensitivity ([1]; lbp1Δsur2-2 mutant expressing mSPP1b): did not alter

ceramide-1-phosphate
degradation of substrate by mSPP1 membrane fractions (mSPP1): not

B1: mSPP1: murine sphingosine-1-phosphate phosphatase, recombinant enzyme having the amino acid sequence of SEQ ID NO:3 (protein)
chain: MSLGQRLALLASRLQEPQRVASFQRLCGVEVPLSSPAADEDAETEVRGAPGEPRRRGRQPGAEDSPAKADCCGAPNGVRNGLAAEPGPTGPRRAGSQRRNSLTGEEGELVKVSNLPLYYLFCLGTELGNELFYILFFPFWIWNLDPFVGRRLVIIWVLVMYLGQCTKDIIRWPRPASPPVIKLEVFYNSEYSMPSTHAMSGTAIPIAMFLLTYGRWQYPLIYGLILIPCWSSLVCLSRIYMGMHSILDVIAGFLYTILILIIFYPLVDLIDNFNQTYKYAPLIIIGLHLILGIFSFTLDTWSTSRGDTAEILGSGAGIACGSHAAYTLGLSLEPSLHMLPLAIPPLTVTLFGKAILRIVLGMLLVLFVRDIMKKITIPLACKLSSIPCHDIRQARQHMEVELPYRYITYGMVGFSITFLVPYVFSFIGIS
increase in dihydrosphingosine phosphate phosphohydrolase activity [2]: 4 to 5 fold
apoptosis (NIH 3T3 fibroblasts): induced the characteristic traits of apoptosis
cell survival (NIH 3T3 fibroblasts): markedly decreased survival
increase in membrane dihydrosphingosine-1-phosphate phosphohydrolase activity [3]: 3 to 4 fold

B2: mSPP1b: murine mSPP1b protein of SEQ ID NO:4, divergent 5′ end, lacks the activity of mSPP1; counterscreen or negative control (protein)
chain: MGEELGHCVQMRKSNERGKRFREQRVQRAQGKVSHHTKEEEETRVRQMSQGWEEKEYGYYLFCLGTELGNELFYILFFPFWIWNLDPFVGRRLVIIWVLVMYLGQCTKDIIRWPRPASPPVIKLEVFYNSEYSMPSTHAMSGTAIPIAMFLLTYGRWQYPLIYGLILIPCWSSLVCLSRIYMGMHSILDVIAGFLYTILILIIFYPLVDLIDNFNQTYKYAPLIIIGLHLILGIFSFTLDTWSTSRGDTAEILGSGAGIACGSHAAYTLGLSLEPSLHMLPLAIPPLTVTLFGKAILRIVLGMLLVLFVRDIMKKITIPLACKLSSIPCHDIRQARQHMEVELPYRYITYGMVGFSITFLVPYVFSFIGIS
increase in membrane dihydrosphingosine-1-phosphate phosphohydrolase activity [3]: same level of phosphohydrolase activity as control

From patent US6667163B2, “Polynucleotide sequences encoding mouse sphingosine-1-phosphate phosphatase” (Merck & Co., Inc., priority 2000, dated 2003)
